# pIC50: −log10 of the molar value.
# Target: T1, 15-PGDH (Homo sapiens, UniProt P15428)
# T1 construct: made in house
# T1 sequence (P15428 1-266): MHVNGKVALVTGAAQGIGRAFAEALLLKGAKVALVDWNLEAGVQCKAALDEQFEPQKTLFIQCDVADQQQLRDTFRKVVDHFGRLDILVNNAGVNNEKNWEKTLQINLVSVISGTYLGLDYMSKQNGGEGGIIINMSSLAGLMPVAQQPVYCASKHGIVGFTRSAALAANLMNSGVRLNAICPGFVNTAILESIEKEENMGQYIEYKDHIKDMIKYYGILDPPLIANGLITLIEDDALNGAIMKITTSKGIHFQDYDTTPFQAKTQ
# Assay: Test on 15-PGDH (spectrophotometric, NAD/PGE2, 340 nm)
# Assay type: biochemical
# Conditions: at 100 μM
# Method: The enzyme 15-PGDH is obtained as described in FR 02/05067 filed in the name of L'Oreal, as a suspension in a medium adjusted to a concentration of 0.3 mg/mL and then blocked at −80° C. For the purposes of the test, this suspension is thawed and stored in ice.
# In parallel, a 100 mM, pH 7.4 Tris buffer containing 0.1 mM of dithiothreitol (D5545, Sigma-Aldrich, L'isle D'Abeau Chesne, BP 701, 38297, Saint Quentin Fallavier), 1.5 mM of β-NAD (N6522, Sigma-Aldrich, L'isle D'Abeau Chesne, BP 701, 38297, Saint Quentin Fallavier), and 50 μM of prostaglandin E2 (P4172, Sigma-Aldrich, L'isle D'Abeau Chesne, BP 701, 38297, Saint Quentin Fallavier) is prepared.
# 0.965 ml of this buffer (brought to 37° C. beforehand) is introduced into the cuvette of a spectrophotometer (Perkin-Elmer, Lambda 2) thermostatically maintained at 37° C., the measuring wavelength of which is set at 340 nm. 0.035 mL of enzymatic suspension at 37° C. is introduced into the cuvette concomitantly with the recording (corresponding to an increase in the optical density at 340 nm). The maximum reaction rate is recorded.
row,Compound,inhibition at 100 µM [%]
1,"CSCCC(=O)Nc1ccccc1C(F)(F)F [Example 5, 3-(methylsulfanyl)-N-[2-(trifluoromethyl)phenyl]propanamide]",21

# Same assay, conditions: pH 7.4 Tris buffer, 37° C., 50 μM prostaglandin E2, 1.5 mM β-NAD; read-out: IC50 (concentration reducing the enzymatic activity of 15-PGDH by 50%, IC50dh)
row,Compound,pIC50
1,"CSCCC(=O)NCc1ccc(C)o1 [Example 1, N-[(5-methyl-2-furyl)methyl]-3-(methylsulfanyl)propanamide]",6.10
2,"CSCCC(=O)NCc1ccco1 [Example 2, N-(2-furylmethyl)-3-(methylsulfanyl)propanamide]",5.01
3,"COc1ccc(CNC(=O)CCSC)cc1 [Example 3, N-(4-methoxybenzyl)-3-(methylsulfanyl)propanamide]",5.22
4,"CCCCCCNC(=O)CCSC [Example 4, N-hexyl-3-(methylsulfanyl)propanamide]",4.92
5,"CSCCC(=O)NC(C)c1ccccc1 (centres unmarked) [Example 7, 3-(methylsulfanyl)-N-(1-phenylethyl)propanamide]",4.83
6,"CSCCC(=O)NC1CCC1 [Example 8, N-cyclobutyl-3-(methylsulfanyl)propanamide]",4.33
7,N-benzyl-3-(methylsulfanyl)propanamide [Example 6],5.80
